How the values were obtained:
Acute toxicity (LD50) = details: mouse, in vivo, ip; intraperitoneal, suspended in saline with 1% HPC, observed 14 days
Experimental: The acute toxicity of the compounds of the present invention was examined by the following test.
The test group to which the compound of the present invention was administered consisted of five mice. Six weeks old male mice (ddY, 30±2 g of body weight) were employed as test animals.

[1] = tested on: P388 lymphocytic leukemia; test: Growth inhibition of tumor cells of P388 lymphocytic leukemia in vitro; type: cell-based, mouse (CDF1); details: Mus musculus, 48 hours at 37° C., read-out: 50% Inhibitory concentration of cell growth (IC50)
Experimental: (I) Growth Inhibition of Tumor Cells of P388 Lymphocytic Leukemia in Vitro:
Tumor cells were collected aseptically with capillary tube from ascites in CDF1 female mice transplanted intraperitoneally with 1×10^6cells of P388 lymphocytic leukemia 5 days before. Cell suspension was prepared at 5×10^4 cells/0.5 ml in a RPMI1640 medium supplemented with 10% fetal calf serum, kanamycin (0.1 mg/ml) and 2-hydroxyethyldisulfide (0.01 mM). Each test sample was dissolved or suspended in the medium at a concentration of 1×10^-1 -1×10^-5 mM.
A test tube with Molton stopper loosely involving 0.5 ml each of the cell suspension and the sample suspension was kept for 48 hours at 37° C. in an incubator supplied with air containing 5% carbon dioxide. […] The cells harvested therefrom was counted by using of a Coulter Counter and the inhibition of cell growth was calculated by the following formula:
Growth Inhibition (%)=(1-T/C)×100
T: number of cells in the culture containing test sample
C: number of cells in the culture of control

V79 cells = test: Inhibitory effect on colony formation of V79 cells in vitro; type: cell-based, Chinese hamster; details: Cricetulus griseus, 96 hours with sample, read-out: 90% inhibitory concentration (IC90)
Experimental: (II) Inhibitory effect on Colony Formation of V79 Cells in Vitro:
V79 cells established from Chinese hamster lung fibroblastoma were cultured routinely on plastic dishes (.phi. 60 mm) in RPMI 1640 medium supplemented with 10% fetal calf serum and kanamycin (0.1 mg/ml). Each confluent culture was then trypsinized by the addition of 1 ml of trypsin-EDTA solution (supplied by the firm GIBCO) for 5 minutes at 37° C. in an incubator supplied with humidified air containing 5% CO2.
Homogeneous suspension of V79 cells thus obtained was diluted to 100, 200 and 400 viable cells/ml with the medium, and 1 ml each of them was transferred to other plastic dishes (.phi. 60 mm) containing 1.85 ml of the medium, and diluted to 100, 200 and 400 viable cells/dish.
Each test sample was dissolved in DMSO at the concentration of 20 mM and diluted with the medium to the final concentration of 2×10^-3 -2×10^-10 mM.
Each test dish was kept for 24 hours at 37° C. in an incubator supplied with humidified air containing 5% CO2, and was further cultured for 96 hours after 150 μl of the sample solution was added thereto.
The cells were gently washed once with Mg- and Ca-free phosphate-buffered saline [PBS(-)] and fixed with 1 ml of 3.5% HCHO-PBS(-) solution for 2 hours, then stained with a crystal violet ethanol solution.
The 90% inhibitory concentration (IC90) was calculated by comparing the number of visible colonies on the sample dish with that on the control dish.

[2] = tested on: P388 lymphocytic leukemia; test: Increase in life span on P388 lymphocytic leukemia tumor-transplanted mouse; type: in vivo, mouse (CDF1); details: P388, ip, 24 h, daily dose 2.3 mg/kg, intraperitoneal, day 1 and 5th day after transplantation, read-out: Rate of increase in life span (ILS)
Experimental: (III) Increase in Life Span on P388 Lymphocytic Leukemia Tumor-transplantedMouse:
The treated group to which the test sample was administered consisted of seven mice, while the control group consisted of ten mice. Six weeks old male mice (CDF1, 25±2 g of body weight) were employed as host animals.
Tumor cells (1.0×10^6) of P388 lymphocytic leukemia were transplanted intraperitoneally into each mouse. The treatment was effected one day after the transplantation and on 5th day by administering prescribed dose of each test sample intraperitoneally to the mice.
Antitumor activity of the test sample was evaluated by the rate of increase in life span (ILS) which was calculated with the following formula.
T': median survival time of treated mice
C': median survival time of control mice

Structure (SMILES): Cc1cccc(C(=O)OCN2C(=O)CN([C@@H](C)[C@@H](C)N3CC(=O)NC(=O)C3)CC2=O)c1 (relative stereo) [Sample 14, erythro-2-[4-(3-toluoyloxmethyl)-3,5-dioxopiperazin-1-yl]-3-(3,5-dioxopiperazine-1-yl)butane]
- LD50 at 336 h (Acute toxicity (LD50)): 6.7 to 10 mg/kg
- IC50 [1]: 13 nM
- IC90 (V79 cells): 0.051 nM
- ILS at 2.3 mg/kg [2]: 199%

— patent US4868303A, “Bis-dioxopiperazine derivatives” (Zenyaku Kogyo Kabushiki Kaisha, priority 1986, dated 1989)
